As usually defined, the CC50 is the concentration giving 50% cytotoxicity.

What all share (assay type): cell-based, human
Data set [1] is described as follows: Cytotoxicity assay (7-AAD viability, flow cytometry). The settings on record: human; Hek293, conditionally normal line; ± standard error of the mean, 95% CI in parenthesis. Background: In flow cytometry, cells or beads pass a laser one at a time.
Assay in data set [2]: as above
The settings on record: human; normal fibroblasts; ± standard error of the mean, 95% CI in parenthesis.

The test system of data set [3] is Jurkat cells. Nature of the data set: Detection of mitodamage: mitochondrial membrane potential and apoptosis (MitoSense Red, annexin V, 7-AAD). The settings on record: compound at CC50, 4 h. From the text: The use of reagents MitoSense Red, annexin V, and 7-AAD in the Millipore FlowCellect™ MitoDamage Kit allowed us to gain information on early, mid, and late apoptosis with one simple assay. […] After this time, the cells were dissociated using an accutase solution, stained, and analyzed using the NovoCyte Penteon Flow Cytometer System (Agilent, 5301 Stevens Creek Blvd., Santa Clara, CA, USA), according to the manufacturer’s protocols for the FlowCellect™ MitoDamage Kit and FlowCellect™ Oxidative Stress Characterization Kit (Merck).
Detection of mitochondrial potential dissipation using MitoSense Red, annexin V, and 7-AAD provided a simultaneous measurement of three important parameters of the cell state within the same cell sample: the state of the mitochondrial potential (Δψ), detected by the membrane-penetrating MitoSense Red dye; the expression of phosphatidylserine on the cell surface of apoptotic cells, assessed by the binding of annexin V to externalized phosphatidylserine; and the binding of 7-AAD to DNA in cells in the late stages of apoptosis. Multiparametric evaluation of these indicators of cell viability made it possible to determine the correlation and relationship between oxidation dissipation and phosphorylation with apoptosis.

The test system of data set [4] is Jurkat cells. The data set is described as follows: Assessment of autophagy (anti-LC3/FITC, flow cytometry). The settings on record: 0.5 CC50, 48 h. The source says: Autophagy is involved in various physiological processes and its changes are associated with the pathogenesis of diseases such as neurodegenerative diseases, cardiovascular complications, cancer, and infectious diseases, as well as with physiological processes such as innate and specific immunity, pathogen clearance, lymphocyte selection, antigen presentation, and production of immunoglobulins. Therefore, the determination of LC3 protein inside autophagosomes without the cytosolic form of LC3-I at the stage of selective cell permeability was measured using flow cytometry. Thus, using the FlowCellect™ LC3-GFP Reporter Autophagy Assay Kit (FCCH100170 and FCCH100181), flow cytometry allowed for a rapid assay that could be combined with other phenotypic and functional markers to characterize different cell populations.
Canonical autophagy is associated with the conversion of LC3 protein (an autophagosome marker) from the cytoplasmic form of LC3I to the lipid-bound form of LC3II, which is associated with the membranes of maturing autophagosomes. The autophagy process can be conveniently classified into several stages. First, induction and translocation of the cytoplasmic LC3 protein occur due to the influence of external stimuli (adverse environmental influences)—the process is initiated by external/internal stimuli (for example, nutrient depletion or hypoxia). Then, the formation of autophagosomes begins, which are double-membrane vesicles that include the LC3 protein. This protein regulates the fusion of autophagosomes and lysosomes. It exists in two fractions—cytoplasmic LC3-I and LC3-II, isolated in the autophagosomal membrane. The LC3-II protein fraction was specified in our work, as its detection is a reliable indicator of the processes of autophagy in the cell.

For `CCCCCCCCCC/C=C\CC/C=C\CC/C=C\CCCCCCCCCCC1=C[C@H](C)OC1=O` [compound 1, chatenaytrienin-1], the figures for the CC50 in data set [1] and in data set [2] were 0.53 ± 0.02 µM and 0.69 ± 0.04 µM, respectively. In addition, the “cells in late apoptosis (stained with 7-AAD)” value in data set [3] (Jurkat) came out at 15.11%. Besides, the “Jurkat tumor cells with the Δψ dissipation phenomenon” value in data set [3] (MitoSense Red) is on record as 83.69%. In data set [4], the “cells with autophagy (gate M3-2)” value was 96.26%.

For the origin of these results see PMC10451668, “Natural Acetogenins, Chatenaytrienins-1, -2, -3 and -4, Mitochondrial Potential Uncouplers and Autophagy Inducers—Promising Anticancer Agents” (Antioxidants, 2023).
